Some test systems named below: RPMI-8226 leukemia; M14 melanoma; SK-MEL-28 melanoma; HCT-116 colon; SF-539 CNS; OVCAR-5 ovarian; SW-620 colon; BT-549 breast; TK-10 renal; ACHN renal.
Test in all cases: inhibition of tumour cell growth, NCI panel, 48 h

The results in this text go back to PubChem BioAssay (NCI).

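Compound exposure: 48 hours, 5 concentrations, 96-well plates. GI50 is the concentration that inhibits growth by half. At the TGI there is no net growth.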

Turning to `COc1ccc(-c2nnc(SCC(=O)Nc3ccc(C(=O)/C=C/c4cc(OC)c(OC)c(OC)c4)cc3)n2-c2ccccc2)cc1OC`, the GI50 is 0.387 µM in the experiment on RPMI-8226 leukemia; 3.33 µM in the experiment on M14 melanoma; > 10 µM in the experiment with SK-MEL-28 melanoma; 0.433 µM in the experiment with HCT-116 colon; 3.2 µM in the experiment on SF-539 CNS; > 10 µM with OVCAR-5 ovarian. Besides, the GI50 in the experiment on SW-620 colon was 2.45 µM; in the experiment with BT-549 breast, 1.98 µM; with TK-10 renal, > 10 µM; in the experiment on ACHN renal it was 5.69 µM. The TGI was 5.73 µM in the experiment on RPMI-8226 leukemia; > 10 µM in the experiment on M14 melanoma; > 10 µM with SK-MEL-28 melanoma; > 10 µM in the experiment on HCT-116 colon; > 10 µM in the experiment with SF-539 CNS; > 10 µM in the experiment on OVCAR-5 ovarian. The TGI in the experiment on SW-620 colon was > 10 µM; with BT-549 breast, 7.99 µM; with TK-10 renal, > 10 µM; in the experiment on ACHN renal, > 10 µM.
`CC(C)=CC(=O)N[C@@H]1CC2CCC3C(CC[C@@]4(C)C3CC[C@@H]4C(C)N(C)C)[C@@]2(C)C[C@@H]1O` (some centres undefined): the GI50 with RPMI-8226 leukemia is 2.51 µM; in the experiment with M14 melanoma it was 1.86 µM; with SK-MEL-28 melanoma, 1.91 µM; in the experiment on HCT-116 colon, 1.63 µM; in the experiment with SF-539 CNS, 1.59 µM; in the experiment with OVCAR-5 ovarian, 10.6 µM. Besides, the GI50 in the experiment on SW-620 colon was 2.86 µM; in the experiment on BT-549 breast, 7.57 µM; in the experiment with TK-10 renal it was 14.1 µM; with ACHN renal, 6.36 µM. In addition, the TGI came to 18.5 µM with RPMI-8226 leukemia; 3.69 µM with M14 melanoma; 3.89 µM with SK-MEL-28 melanoma; 5.27 µM in the experiment on HCT-116 colon; 3.36 µM in the experiment on SF-539 CNS; 38.2 µM with OVCAR-5 ovarian. The TGI with SW-620 colon worked out at 10.5 µM; in the experiment on BT-549 breast, 29.3 µM; in the experiment on TK-10 renal, 32.3 µM; in the experiment on ACHN renal, 32.6 µM.
On to `CN(C)CC1CCCCCC(Br)C1=O` (centres undefined), for which the TGI with RPMI-8226 leukemia was 3.96 µM; with M14 melanoma, 37.5 µM; in the experiment with SK-MEL-28 melanoma, 34 µM; in the experiment on HCT-116 colon, 5.1 µM; in the experiment on SF-539 CNS, 31.8 µM; in the experiment on OVCAR-5 ovarian it was > 52.2 µM. For the same molecule, the TGI in the experiment on SW-620 colon came to 12.7 µM; with BT-549 breast it was 26.4 µM; with TK-10 renal, 17.7 µM; in the experiment on ACHN renal it was 19.6 µM.
Take `Fc1cccc(Cl)c1Cn1c(-c2c(F)cccc2Cl)nc2ccccc21`: the GI50 is 13.3 µM with RPMI-8226 leukemia; 19.4 µM in the experiment with M14 melanoma; 20.4 µM in the experiment with SK-MEL-28 melanoma; 34.4 µM in the experiment on HCT-116 colon; 23.1 µM in the experiment on SF-539 CNS; 24.9 µM in the experiment on OVCAR-5 ovarian. Further, the GI50 with SW-620 colon is 16.8 µM; with BT-549 breast it was 25.4 µM; in the experiment on TK-10 renal it was 15.6 µM; in the experiment on ACHN renal, 18.9 µM. The TGI in the experiment on RPMI-8226 leukemia was 60 µM; in the experiment with M14 melanoma, 53.9 µM; in the experiment on SK-MEL-28 melanoma, 46.2 µM; with HCT-116 colon, > 100 µM; in the experiment with SF-539 CNS it was 46.2 µM; in the experiment on OVCAR-5 ovarian it was 95.8 µM. Further, the TGI with SW-620 colon came to 38 µM; in the experiment on BT-549 breast, 53.2 µM; in the experiment on TK-10 renal it was 39.8 µM; in the experiment with ACHN renal, 41.4 µM.
Turning to `O=C(c1nn(-c2ccc(Cl)cc2)cc1O)n1nc(C(F)(F)F)cc1-c1ccccc1`, the GI50 is 1.91 µM in the experiment on RPMI-8226 leukemia; 3.69 µM with M14 melanoma; 6.56 µM in the experiment on SK-MEL-28 melanoma; 1.91 µM in the experiment on HCT-116 colon; 2.7 µM in the experiment on SF-539 CNS; 4.51 µM with SW-620 colon. Besides, the GI50 with BT-549 breast was 1.12 µM; in the experiment on TK-10 renal, 1.41 µM; in the experiment with ACHN renal, 2.08 µM. Moreover, the TGI is > 85.3 µM in the experiment with RPMI-8226 leukemia; > 52.2 µM in the experiment on M14 melanoma; > 100 µM in the experiment on SK-MEL-28 melanoma; > 100 µM in the experiment with HCT-116 colon; > 100 µM in the experiment on SF-539 CNS; > 85 µM in the experiment on OVCAR-5 ovarian. The TGI in the experiment on SW-620 colon, in the experiment on BT-549 breast, in the experiment with TK-10 renal and in the experiment on ACHN renal was > 100 µM in each case.
